Assay results from patent US20260042769A1, “TRIARYL AGONISTS OF ALPHA-2 ADRENERGIC RECEPTORS” (ALCEPTOR THERAPEUTICS, INC., priority 2023, published 2026).

The molecules below were run against T1, human ADRA2B receptor (Homo sapiens, UniProt P18089) (assay: ADRA2B arrestin agonist assay). Details: CHO-K1 cells stably expressing human ADRA2B; read-out: Beta-Arrestin - Human Alpha2B EC50.
T1 construct: expressed in transfected cells
T1 sequence (P18089 1-450): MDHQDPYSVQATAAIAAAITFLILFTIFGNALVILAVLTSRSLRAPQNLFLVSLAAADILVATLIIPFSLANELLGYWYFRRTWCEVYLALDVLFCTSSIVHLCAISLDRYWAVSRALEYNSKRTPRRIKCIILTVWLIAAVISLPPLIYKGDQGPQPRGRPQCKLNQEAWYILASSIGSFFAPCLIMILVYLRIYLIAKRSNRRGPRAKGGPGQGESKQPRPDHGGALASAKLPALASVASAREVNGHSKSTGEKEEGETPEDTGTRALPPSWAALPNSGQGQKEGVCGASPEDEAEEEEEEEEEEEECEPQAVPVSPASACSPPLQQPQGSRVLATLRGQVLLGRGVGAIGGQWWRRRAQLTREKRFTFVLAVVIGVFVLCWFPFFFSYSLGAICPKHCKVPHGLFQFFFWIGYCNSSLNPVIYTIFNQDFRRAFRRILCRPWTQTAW
Format: cell-based
Procedure: ADRA2A and ADRA2B Arrestin Agonist Assay Method
The arrestin assay uses frozen CHO-K1 cell lines stably expressing human ADRA2A and ADRA2B receptors. Cells are frozen following normal cell freezing protocols. Briefly, cells are washed with PBS and then dissociated with 0.25% trypsin. Dissociated cells are quenched in full media and then collected by centrifugation at 290×g for 5 minutes. […] Cells are stored at −80° C. (or in liquid N2 if stored >6 months) until the day of the assay.
On the day before the assay, frozen cells are thawed in a 37° C. water bath, brought up in 20 mL of full media, and collected via centrifugation at 290×g for 5 minutes. […] Cells are incubated overnight in a 37° C., 5% CO2 cell incubator.
On the day of the assay, agonists are diluted in Opti-MEM to 3.5x of the final assay concentration. 4 μL of agonists are added to the cells and incubated for 2 hours at 37° C. in a 5% CO2 cell incubator. 6 μL of arrestin detection reagents are dispensed onto the cells and the plates are incubated for 2 hours at room temperature. […] Plates are read on an Envision luminescence plate reader.

| Structure (SMILES) | EC50 [nM] |
| --- | --- |
| Cn1ccc2cccc(C(Cc3cc[nH]n3)c3c[nH]cn3)c21 (stereo not shown) [Compound 253, 3-[2-(4-imidazolyl)-2-(1-methyl-7-indolyl)ethyl]pyrazole] | > 500 |
| Cc1cc(CC(c2c[nH]cn2)c2cccc(C)c2C)ccn1 (stereo not shown) [Compound 255, 4-[2-(2-methyl-4-pyridyl)-1-(2,3-xylyl)ethyl]imidazole] | < 10 |
| CNC(=O)c1ccc(CC(c2c[nH]cn2)c2cccc(C)c2C)cn1 (stereo not shown) [Compound 302, N-methyl-5-[2-(4-imidazolyl)-2-(2,3-xylyl)ethyl]-2-pyridinecarboxamide] | < 10 |
| Cc1cc(CC(c2c[nH]cn2)c2cccc3ccn(C)c23)ncn1 (stereo not shown) [Compound 165, 4-[2-(4-imidazolyl)-2-(1-methyl-7-indolyl)ethyl]-6-methylpyrimidine] | 50 to 500 |
| Cc1cccc([C@H](Cc2cocn2)c2c[nH]cn2)c1C [Compound 366, 4-[(S)-2-(4-imidazolyl)-2-(2,3-xylyl)ethyl]-1,3-oxazole] | < 10 |
| COCc1nccc(CC(c2c[nH]cn2)c2cccc3c2OCC3)n1 (stereo not shown) [Compound 306, 4-[2-(2,3-dihydro-1-benzofuran-7-yl)-2-(4-imidazolyl)ethyl]-2-(methoxymethyl)pyrimidine] | < 10 |
| COc1nccc(CC(c2c[nH]cn2)c2ccccc2OC2CC2)n1 (stereo not shown) [Compound 195, 4-[2-(o-cyclopropoxyphenyl)-2-(4-imidazolyl)ethyl]-2-methoxypyrimidine] | 10 to 50 |
| Cn1nccc1CC(c1c[nH]cn1)c1cccc2c1OCCCO2 (stereo not shown) [Compound 299, 5-[2-(3,4-dihydro-2H-1,5-benzodioxepin-6-yl)-2-(4-imidazolyl)ethyl]-1-] | > 500 |
| Cc1nccc(CC(c2ccc3c(c2)OCCO3)c2c[nH]cn2)n1 (stereo not shown) [Compound 175, 4-[2-(2,3-dihydro-1,4-benzodioxin-6-yl)-2-(4 imidazolyl)ethyl]-2-methylpyrimidine] | > 500 |
| COc1nccc(CC(c2c[nH]cn2)c2ccccc2C(F)(F)F)n1 (stereo not shown) [Compound 354, 4-{2-(4-imidazolyl)-2-[o-(trifluoromethyl)phenyl]eth-yl}-2-methoxypyrimidine] | > 500 |
| Cc1cccc(C(Cc2cccnc2C)c2c[nH]cn2)c1C (stereo not shown) [Compound 254, 4-[2-(2-methyl-3-pyridyl)-1-(2,3-xylyl)ethyl]imidazole] | 10 to 50 |

Now from value to molecule:

| EC50 [nM] | Structure (SMILES) |
| --- | --- |
| > 500 | Cc1cccc([C@@H](Cc2ccn(C(F)F)n2)c2c[nH]cn2)c1C [Compound 282, 3-[(R)-2-(4-imidazolyl)-2-(2,3-xylyl)ethyl]-1-(difluoromethyl)pyrazole] |
| < 10 | Cc1cccc([C@@H](Cc2cn(C)nn2)c2c[nH]cn2)c1F [Compound 249, 4-[(R)-2-(2-fluoro-3-tolyl)-2-(4-imidazolyl)ethyl]-1-methyl-1H-1,2,3-triazole] |
| > 500 | Cc1cc(CC(c2c[nH]cn2)c2cccc(C)c2C)ncn1 (stereo not shown) [Compound 257, 4-[2-(4-imidazolyl)-2-(2,3-xylyl)ethyl]-6-methylpyrimidine] |
| < 10 | Cc1cccc(C(Cc2ccnc(CO)n2)c2c[nH]cn2)c1F (stereo not shown) [Compound 156, {4-[2-(2-fluoro-3-tolyl)-2-(4-imidazolyl)ethyl]-2-pyrimidinyl}methanol] |
| 50 to 500 | COc1c(C)cccc1C(Cc1cccc(C)n1)c1c[nH]cn1 (stereo not shown) [Compound 389, 4-[1-(2-methoxy-3-tolyl)-2-(6-methyl-2-pyridyl)ethyl]imida-zole-formic acid (1/1)] |
| > 500 | COCc1nccc(C[C@H](c2c[nH]cn2)c2cccc(C)c2C)n1 [Compound 346, 4-[(S)-2-(4-imidazolyl)-2-(2,3-xylyl)ethyl]-2-(methoxymethyl)pyrimidine] |
| < 10 | COC(C)(C)c1nccc(CC(c2c[nH]cn2)c2cccc(C)c2C)n1 (stereo not shown) [Compound 209, 4-[2-(4-imidazolyl)-2-(2,3-xylyl)ethyl]-2-(1-methoxy-1-methylethyl)pyrimidine] |
| < 10 | Cc1nccc(CC(c2c[nH]cn2)c2cccc3c2cnn3C)n1 (stereo not shown) [Compound 167, 4-[1-(4-imidazolyl)-2-(2-methyl-4-pyrimidinyl)ethyl]-1-methyl-1H-indazole] |
